According to ChEMBL document CHEMBL2157977, “The antitumor agent doxorubicin binds to Fanconi anemia group F protein” (Bioorg Med Chem, 2012):
Activity calls are given as the source filed them. The rule behind the calls is not given here.

Tests used:
[1] = target: Fanconi anemia group D2 protein (Homo sapiens) (UniProt Q9BXW9); test: Inhibition of CDDP-induced FANCD2 monoubiquitination in human HeLa cells at 9 uM after 18 hrs by Western blot analysis; format: cell-based
[2] = target: T1, Fanconi anemia group F protein (Homo sapiens) (UniProt Q9NPI8); test: Binding affinity to human thymus flag-tagged full-length FANCF expressed in HEK293T cells after 10 mins by pull-down assay; format: cell-based; conditions: HEK-293T
T1 sequence (whole entry): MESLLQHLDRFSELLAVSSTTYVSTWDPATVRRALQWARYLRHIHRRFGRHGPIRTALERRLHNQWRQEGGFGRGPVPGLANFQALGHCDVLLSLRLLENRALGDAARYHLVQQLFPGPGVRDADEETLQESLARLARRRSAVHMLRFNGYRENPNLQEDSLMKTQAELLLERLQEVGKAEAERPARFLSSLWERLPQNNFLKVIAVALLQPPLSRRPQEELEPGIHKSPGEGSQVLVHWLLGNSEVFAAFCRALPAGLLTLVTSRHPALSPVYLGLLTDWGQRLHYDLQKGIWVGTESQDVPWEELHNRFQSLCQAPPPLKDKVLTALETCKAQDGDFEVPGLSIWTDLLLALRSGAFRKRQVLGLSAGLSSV

Fanconi anemia group D2 protein (Homo sapiens), sequence (Q9BXW9 whole entry): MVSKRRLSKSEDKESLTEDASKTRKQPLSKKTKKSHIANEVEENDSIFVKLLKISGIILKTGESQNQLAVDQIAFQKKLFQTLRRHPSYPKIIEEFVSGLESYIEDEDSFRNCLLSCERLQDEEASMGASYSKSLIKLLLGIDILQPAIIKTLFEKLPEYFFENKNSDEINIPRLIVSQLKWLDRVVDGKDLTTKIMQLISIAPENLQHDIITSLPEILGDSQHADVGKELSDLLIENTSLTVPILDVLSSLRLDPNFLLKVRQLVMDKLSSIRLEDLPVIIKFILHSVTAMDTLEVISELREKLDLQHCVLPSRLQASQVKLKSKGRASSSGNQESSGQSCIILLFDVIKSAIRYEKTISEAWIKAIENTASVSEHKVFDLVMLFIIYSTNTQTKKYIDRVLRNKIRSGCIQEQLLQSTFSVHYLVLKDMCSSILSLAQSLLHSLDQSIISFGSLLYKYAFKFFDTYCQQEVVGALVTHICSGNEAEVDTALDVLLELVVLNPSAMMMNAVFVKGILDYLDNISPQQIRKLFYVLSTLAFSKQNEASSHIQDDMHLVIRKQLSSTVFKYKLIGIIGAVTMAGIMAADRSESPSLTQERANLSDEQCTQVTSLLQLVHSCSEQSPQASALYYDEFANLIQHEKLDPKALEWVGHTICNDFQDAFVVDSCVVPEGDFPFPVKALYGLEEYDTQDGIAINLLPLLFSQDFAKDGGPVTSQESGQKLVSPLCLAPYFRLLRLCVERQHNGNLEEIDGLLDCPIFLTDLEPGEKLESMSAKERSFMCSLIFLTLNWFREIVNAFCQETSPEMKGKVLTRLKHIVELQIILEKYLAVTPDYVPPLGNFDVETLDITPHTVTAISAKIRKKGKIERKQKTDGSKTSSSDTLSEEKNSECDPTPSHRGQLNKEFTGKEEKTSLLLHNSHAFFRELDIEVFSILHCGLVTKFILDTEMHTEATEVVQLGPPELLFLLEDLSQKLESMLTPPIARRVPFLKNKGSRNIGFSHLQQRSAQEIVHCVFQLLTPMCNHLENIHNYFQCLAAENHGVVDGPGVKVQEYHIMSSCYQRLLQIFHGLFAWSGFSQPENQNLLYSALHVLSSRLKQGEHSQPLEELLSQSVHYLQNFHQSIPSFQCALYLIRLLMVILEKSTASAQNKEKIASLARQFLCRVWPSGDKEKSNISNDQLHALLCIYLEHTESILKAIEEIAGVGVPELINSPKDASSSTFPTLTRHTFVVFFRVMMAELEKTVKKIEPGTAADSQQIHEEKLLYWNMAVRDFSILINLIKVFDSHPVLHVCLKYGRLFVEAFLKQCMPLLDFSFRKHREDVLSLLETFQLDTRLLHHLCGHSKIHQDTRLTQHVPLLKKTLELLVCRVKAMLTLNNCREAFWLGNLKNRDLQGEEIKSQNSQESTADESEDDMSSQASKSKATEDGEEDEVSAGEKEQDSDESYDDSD

inhibition [1] | Activity [2] | Compound
Active | – | COc1cccc2c1C(=O)c1c(O)c3c(c(O)c1C2=O)C[C@@](O)(C(=O)CO)C[C@@H]3O[C@H]1C[C@H](N)[C@H](O)[C@H](C)O1
– | Active | COc1cccc2c1C(=O)c1c(O)c3c(c(O)c1C2=O)C[C@@](O)(C(=O)CO)C[C@@H]3O[C@H]1C[C@H](NC(=O)CCCCCNC(=O)CCCC[C@@H]2SC[C@@H]3NC(=O)N[C@@H]32)[C@H](O)[C@H](C)O1
